Literature values in patent US12612577B2, “Perfumed compositions, process of preparing thereof and uses” (MINASOLVE SAS, priority 2019, dated 2026).

Tested on: bacteria and fungi
Settings: against bacteria and fungi

CCCC(O)CO (stereo not shown) [1,2-pentanediol]
minimum inhibitory concentration (MIC): 5%
